For assay [1], the system named is STING signaling. Description: Luciferase live cell assay, type I IFN promoter in hTERT-pIFNβ-Glu cells after ISD transfection. It is filed as cell-based, human. Conditions: hTERT-pIFNβ-Glu cells. As to the method:
Inhibition of IFNβ expression was measured by Luciferase induction at 24 hours after transfection of ISD, Mock is shown (210), ISD treatment only (220) was used as a control, according to an embodiment of the invention;
Example 1: Identification of small molecule antagonists of STING. In the presence of cytosolic DNA species, STING becomes activated to drive the transcription of cytokines such as type I IFN. Compounds binding to STING via TSA were subsequently examined for their ability to prevent cytosolic DNA species from activating the type I interferon (IFN) promoter, using a live cell assay. This assay comprised immortalized human fibroblasts that were stably transfected with the type I IFN promoter driving luciferase as well as the CMV promoter driving SEAP (hTERT-pIFNβ-Glu). The live cell assay has previously been disclosed in PCT/JS2019/025380 entitled IFN-βETA REPORTER SYSTEM FOR IMMORTALIZED PRIMARY CELLS inventor Glen N. Barber, which was filed Apr. 2, 2018 and published as WO2019195285, and which is herein incorporated by reference in its entirety and for all purposes. The ability of the small molecules to prevent activation of the type I IFN promoter and the transcription of luciferase, but not SEAP in response to cytosolic DNA species was assessed. The activation of STING, typically by CDNs, in turn activates the transcription factors NF-κB and IRF3, both of which are required to induce the transcriptional stimulation of the Type I IFN promoter, but not the CMV promoter as IRF3 and NF-kB transcription factor binding sites are not contained in the CMV promoter. The assay identified the small molecule Compound Y1 in the first screen (HTS), where the level of luciferase was not able to activate the type I IFN promoter or induce the expression of luciferase (see Table I).
Example 4: hTERT-BJ1 Telomerase Fibroblasts (hTERT) were originally purchased from Clontech and were cultured in 4:1 ratio of DMEM:Medium 199 supplement with 10% FBS, 4 mM L-Glutamine and 1 mM sodium pyruvate at 37° C. in a 5% CO2-humidified atmosphere. hTERT-BJ1 Telomerase Fibroblasts stably expressing the luciferase gene under the control of the interferon-beta promoter and SEAP gene under control of the CMV promoter) (hTERT-pIFNβ-Glu) were generated by the Barber laboratory.
Example 7: Luciferase assay: hTERT-BJ1 Telomerase Fibroblasts stably expressing the luciferase gene under the control of the interferon-beta promoter and SEAP gene under control of the CMV promoter) (hTERT-pIFNβ-Glu) were generated by the Barber laboratory. Luciferase assay was performed using Secrete-Pair Dual Luminescence Assay Kit from GeneCopoeia following the manufacturer's protocol.

The test system of assay [2] is STING signaling. Description: qPCR of Cxcl10 / Cxcl5 in MEF cells after ISD transfection. It is filed as cell-based, murine. As to the method: MEFs were obtained from E13.5 embryos by a standard procedure. Bone Marrow Derived Macro-phages (BMDM) were isolated from hind-limb femurs of 8-10 weeks old WT and Trex1 KO (TKO) mice. The hematopoietic cells from the bone marrow were cultured in complete DMEM (Invitrogen) including 10 ng/ml of Mouse Recombinant Colony-Stimulating Factor (M-CSF, R&D Systems) for 10 to 14 days.
Example 11: qPCR total RNA were reverse-transcribed using M-MLV Reverse Transcriptase (Promega). Real-time PCR was performed using Taqman Gene Expression Assay (Applied Biosystems) for innate immune genes and inflammatory cytokines.

The subject of assay [3] is STING signaling. The assay can be described thus: IFNβ ELISA in MEF cells after ISD treatment. It is filed as cell-based, murine. The protocol: Example 9: Interferon β Elisa analysis: Interferon β Elisa was performed using either the IFNβ human ELISA Kit from Invitrogen or the Human IFNβ ELISA Kit from PBL Interferon Source following the manufacturer's protocol.
The subject of a further assay is TREX1-deficient mice. The assay can be described thus: Treatment of TREX1 knockout (TKO) mice: survival and heart histopathology. It is filed as in vivo, mouse. As to the method:
Example 12: Mouse Treatment: Trex1 Hetero knockout mice (Trex1^+/−) were generated by crossing the hetero mice. Mouse genotypes from tail biopsies were determined using Real Time PCR with specific probes designed for each gene by commercial vendor (Transnetyx). Trex1 KO (TKO) mice (4-5 weeks old) were intraperitoneally injected with 25 μg Z811 per mouse in 200 μL 1% DMSO in PBS. The mice were injected three times a week for 5 months. The survival rates were evaluated.
Example 13: Histopathology. Mice are sacrificed and the heart tissues were fixed in 10% formalin for 48 hours.

Entries after “also recorded” stand apart in the source; their conditions may differ.

Consider `N#Cc1c(NC(=O)c2ccccc2Cl)n(Cc2ccccc2)c2nc3ccccc3nc12` [Compound Y1, N-{1-benzyl-3-cyano-1H-pyrrolo[2,3-ß]quinoxalin-2-yl}-2-chlorobenzamide], for which the “inhibition of activation of the type I IFN promoter (luciferase induction)” value in the assay on STING signaling [1] (10 μM and 50 μM, ISD 3 μg/ml, 24 hours after transfection) is “inhibited activation of the type I IFN promoter; also recorded: exhibited inhibition of the activation of the type I IFN promoter”. Further, the “inhibitory activity of the type I IFN promoter (luciferase induction)” value in the assay with STING signaling [1] (50 μM or 25 μM, in response to ISD) is “showed robust inhibitory activity of the type I IFN promoter”. Besides, the “Cxcl10 production in response to ISD (qPCR)” value in the assay on STING signaling [2] is “dramatically decreased”. The “Cxcl5 production in response to ISD (qPCR)” value with STING signaling [2] (50 μM) is recorded as “dramatically decreased”. Further, the “IFNβ production (ELISA)” value with STING signaling [3] is recorded as “reproducibly decreased the production of IFNβ; also recorded: dramatically decreased”. Moreover, the “inflammation in the heart (H&E staining)” value in the assay on TREX1-deficient mice is on record as “Less inflammation in the heart”. For the same compound, the “survival of TREX1-deficient mice” value in the assay on TREX1-deficient mice (intraperitoneal, 25 μg/mouse, 5 months, compared to mock treated) was “survival was significantly improved over several months; also recorded: extended the life of TREX1-deficient mice”.

Values taken from US12410174B1, “Small molecular inhibitors of sting signaling compositions and methods of use” (TYERELL IMMUNOTHERAPEUTICS INC, priority 2020, dated 2025).
